Test results published in patent US20060276464A1, “Diarylsulfone sulfonamides and use thereof” (Wyeth, priority 2005, published 2006).
Structures can show the parent of a compound that is named as a salt.

How the values were obtained:
[1] = target: T1, SFRP-1 (Homo sapiens, UniProt Q8N474); assay: Cell-based assay for in vitro measurement of SFRP-1/SARP2 antagonist activity (U2OS cells co-transfected with 16x TCF-tk-Luciferase reporter, Wnt and hSFRP-1); settings: for fold induction at 10 µM: U2OS, read-out: Fold Induction with SFRP-1, U2OS cells, single dose 10 μM, luciferase reporter, fold induction over SFRP-1 control;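 as to all read-outs here: U2OS cells co-transfected with a TCF-tk luciferase reporter, a Wnt vector, hSFRP-1 or empty vector and CMV-βgal, luciferase luminescence read in cell lysates alongside βgal activity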
T1 sequence (Q8N474 32-314): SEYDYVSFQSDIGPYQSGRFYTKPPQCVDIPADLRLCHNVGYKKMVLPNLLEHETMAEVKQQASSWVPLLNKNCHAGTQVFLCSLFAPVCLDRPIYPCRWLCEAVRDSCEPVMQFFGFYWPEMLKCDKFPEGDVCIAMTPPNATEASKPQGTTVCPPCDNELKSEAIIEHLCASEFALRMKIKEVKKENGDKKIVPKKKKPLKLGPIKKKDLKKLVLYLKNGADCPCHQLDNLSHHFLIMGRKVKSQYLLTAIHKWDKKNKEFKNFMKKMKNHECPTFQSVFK

[2] = target: T1, SFRP-1; assay: Fluorescence polarization binding assay (competitive displacement of a probe compound from SFRP-1); settings: fluorescence anisotropy, 45 nM SFRP-1, 20 nM probe;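 also: test compound competes with a fluorescent probe held by SFRP-1, seen as a drop in probe anisotropy after incubation in darkness, with anisotropy as function of rising compound dose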

fold induction at 10 µM [1] | IC50 [2] | EC50 [1] | SMILES
1.7 | 3 µM | – | O=S(=O)(NC1CCN(Cc2ccc(C(F)(F)F)cc2)CC1)c1cc(S(=O)(=O)c2ccccc2)ccc1C(F)(F)F [Example 749, 5-(phenylsulfonyl)-2-(trifluoromethyl)-N-{1-[4-(trifluoromethyl)benzyl]piperidin-4-yl}benzenesulfonamide]
4.2 | 0.2 µM | 0.937 µM | N#CCN1CCC(NS(=O)(=O)c2cc(S(=O)(=O)c3ccccc3)ccc2C(F)(F)F)CC1 [Example 750, N-[1-(cyanomethyl)piperidin-4-yl]-5-(phenylsulfonyl)-2-(trifluoromethyl)benzenesulfonamide]
3.1 | 0.3 µM | 4.85 µM | O=C(CN1CCC(NS(=O)(=O)c2cc(S(=O)(=O)c3ccccc3)ccc2C(F)(F)F)CC1)c1ccccc1 [Example 751, N-[1-(2-oxo-2-phenylethyl)piperidin-4-yl]-5-(phenylsulfonyl)-2-(trifluoromethyl)benzenesulfonamide]
3.8 | 0.4 µM | 1.09 µM | N#CCCNS(=O)(=O)c1cc(S(=O)(=O)c2cccc(Cl)c2)ccc1C(F)(F)F [Example 752, 5-[(3-chlorophenyl)sulfonyl]-N-(2-cyanoethyl)-2-(trifluoromethyl)benzenesulfonamide]
3.8 | 0.7 µM | – | CC(C)(C)c1ccc(C(=O)N2CCC(NS(=O)(=O)c3cc(S(=O)(=O)c4cccc(Cl)c4)ccc3C(F)(F)F)CC2)cc1 [Example 753, N-[1-(4-tert-butylbenzoyl)piperidin-4-yl]-5-[(3-chlorophenyl)sulfonyl]-2-(trifluoromethyl)benzenesulfonamide]
2.5 | 0.4 µM | 1.98 µM | O=S(=O)(NC1CCOCC1)c1cc(S(=O)(=O)c2cccc(Cl)c2)ccc1C(F)(F)F [Example 754, 5-[(3-chlorophenyl)sulfonyl]-N-(tetrahydro-2H-pyran-4-yl)-2-(trifluoromethyl)benzenesulfonamide]
3.8 | 0.16 µM | 1.43 µM | O=S(=O)(NCCc1cccnc1)c1cc(S(=O)(=O)c2cccc(Cl)c2)ccc1C(F)(F)F [Example 755, 5-[(3-chlorophenyl)sulfonyl]-N-(2-pyridin-3-ylethyl)-2-(trifluoromethyl)benzenesulfonamide]
3.1 | 1.1 µM | – | O=S(=O)(NCC(O)c1ccccn1)c1cc(S(=O)(=O)c2ccccc2)ccc1C(F)(F)F (stereo not drawn) [Example 757, N-(2-hydroxy-2-pyridin-2-ylethyl)-5-(phenylsulfonyl)-2-(trifluoromethyl)benzenesulfonamide]
3.4 | 0.3 µM | 0.582 µM | O=C(c1ccccc1OC(F)(F)F)N1CCC(NS(=O)(=O)c2cc(S(=O)(=O)c3ccccc3)ccc2C(F)(F)F)CC1 [Example 758, 5-(phenylsulfonyl)-N-{1-[2-(trifluoromethoxy)benzoyl]piperidin-4-yl}-2-(trifluoromethyl)benzenesulfonamide]
3.5 | 1.6 µM | – | CC(C)(C)c1ccc(NC(=O)N2CCC(NS(=O)(=O)c3cc(S(=O)(=O)c4ccccc4)ccc3C(F)(F)F)CC2)cc1 [Example 759, N-(4-tert-butylphenyl)-4-({[5-(phenylsulfonyl)-2-(trifluoromethyl)phenyl]sulfonyl}amino)piperidine-1-carboxamide]
3.2 | 0.6 µM | 1.57 µM | CC(C)(C)c1ccc(C(=O)N2CCC(NS(=O)(=O)c3cc(S(=O)(=O)c4ccccc4)ccc3C(F)(F)F)C2)cc1 (stereo not drawn) [Example 761, N-[1-(4-tert-butylbenzoyl)pyrrolidin-3-yl]-5-(phenylsulfonyl)-2-(trifluoromethyl)benzenesulfonamide]
2.2 | 2.1 µM | – | NCCNS(=O)(=O)c1cc(S(=O)(=O)c2ccccc2)ccc1C(F)(F)F [Example 762, N-(2-Aminoethyl)-5-(phenylsulfonyl)-2-(trifluoromethyl)benzenesulfonamide hydrochloride]
2.7 | 1.7 µM | – | O=S(=O)(NC1CCN(c2ccc(C(F)(F)F)cc2)CC1)c1cc(S(=O)(=O)c2ccccc2)ccc1C(F)(F)F [Example 763, 5-(phenylsulfonyl)-2-(trifluoromethyl)-N-{1-[4-(trifluoromethyl)phenyl]piperidin-4-yl}benzenesulfonamide]
0.6 | 0.27 µM | 0.463 µM | CC(C)(C)c1ccc(C(=O)N2CCC(NS(=O)(=O)c3cc(S(=O)(=O)c4cccc(O)c4)ccc3C(F)(F)F)CC2)cc1 [Example 764, N-[1-(4-tert-butylbenzoyl)piperidin-4-yl]-5-[(3-hydroxyphenyl)sulfonyl]-2-(trifluoromethyl)benzenesulfonamide]
3.7 | 0.19 µM | 0.754 µM | O=S(=O)(NCC1CCOCC1)c1cc(S(=O)(=O)c2ccccc2)ccc1C(F)(F)F [Example 765, 5-(phenylsulfonyl)-N-(tetrahydro-2H-pyran-4-ylmethyl)-2-(trifluoromethyl)benzenesulfonamide]
2.7 | 0.4 µM | 1.22 µM | O=S(=O)(NCCN1CCOCC1)c1cc(S(=O)(=O)c2ccccc2)ccc1C(F)(F)F [Example 766, N-(2-morpholin-4-ylethyl)-5-(phenylsulfonyl)-2-(trifluoromethyl)benzenesulfonamide]
3.6 | 0.9 µM | – | O=S(=O)(NCCCN1CCOCC1)c1cc(S(=O)(=O)c2ccccc2)ccc1C(F)(F)F [Example 767, N-(3-morpholin-4-ylpropyl)-5-(phenylsulfonyl)-2-(trifluoromethyl)benzenesulfonamide]
3.4 | 0.4 µM | 1.13 µM | COCCCNS(=O)(=O)c1cc(S(=O)(=O)c2ccccc2)ccc1C(F)(F)F [Example 768, N-(3-methoxypropyl)-5-(phenylsulfonyl)-2-(trifluoromethyl)benzenesulfonamide]
1.7 | 2.7 µM | – | O=C(NCCNS(=O)(=O)c1cc(S(=O)(=O)c2ccccc2)ccc1C(F)(F)F)c1ccccc1 [Example 770, N-[2-({[5-(Phenylsulfonyl)-2-(trifluoromethyl)phenyl]sulfonyl}amino)ethyl]benzamide]
3.5 | 0.08 µM | 0.733 µM | O=S(=O)(NCCc1ccncc1)c1cc(S(=O)(=O)c2ccccc2)ccc1C(F)(F)F [Example 771, 5-(phenylsulfonyl)-N-(2-pyridin-4-ylethyl)-2-(trifluoromethyl)benzenesulfonamide]
1.2 | 0.08 µM | – | O=S(=O)(NC1Cc2ccccc2C1)c1cc(S(=O)(=O)c2ccccc2)ccc1C(F)(F)F [Example 772, N-(2,3-dihydro-1H-inden-2-yl)-5-(phenylsulfonyl)-2-(trifluoromethyl)benzenesulfonamide]
1.2 | 1.9 µM | 1.3 µM | O=S(=O)(NC[C@H](O)c1ccccc1)c1cc(S(=O)(=O)c2ccccc2)ccc1C(F)(F)F [Example 773, N-[(2R)-2-hydroxy-2-phenylethyl]-5-(phenylsulfonyl)-2-(trifluoromethyl)benzenesulfonamide]
